pIC50: −log10 of the molar value. Counter-ions that a name gives are not always drawn.

Data on 16 compounds can be found in US9518052B2, “Pyrazolopyridines and pyrazolopyrimidines” (Pfizer Inc., priority 2014, dated 2016).

The subject of assay [1] is rhIFNγ stimulated STAT-3 phosphorylation in the A549 human epithelial cell line. Put plainly: A549 Cell Assay: Inhibition of pSTAT3. Type of assay: cell-based. To be noted: A549 cells. The method, then:
A549 Cell Assay: Inhibition of pSTAT3
An assay measuring the efficacy of JAK inhibitors on the functional response of recombinant human interferon γ (rhIFNγ) stimulated STAT-3 phosphorylation in the A549 human epithelial cell line.
A549 cells (ATCC #CCL-185), were plated at 30,000 cells/well in 96 well flat bottomed tissue culture plates (BD#353072) in 200 μL of growth medium (DMEM, Pfizer media prep, with 10% Fetal Bovine Serum, Sigma #F4135, 2 mM L-Glutamine, Pfizer media prep, 100 U/mL penicillin, Pfizer media prep, and 200 μg/ml streptomycin, Pfizer media prep), and cultured at 37° C., 5% CO2 incubator for 18 hours. Growth medium was removed by vacuum aspiration (V&P Scientific #vp187 bp-60), and 90 μL of pre-warmed assay medium (DMEM with 0.2% BSA, Miltenyi #130-091-376) was added to each well and incubated for 15 minutes at 37° C. 10 μL of vehicle control or test compound (final concentration range of 0.3 nM to 10 μM with 0.1% DMSO) was added to the cells. Plates were incubated at 37° C. for 1 hour. After compound incubation, 10 μL of 220 ng/mL recombinant human IFNγ (R&D Systems #285-IF, final rhIFNγ concentration of 20 ng/mL) was added to the cells and plates were incubated for 30 minutes at 37° C. Wells containing A549 cells, medium with 0.1% DMSO and no rhIFNγ were used as background controls. After rhIFNγ stimulation, media was aspirated from each well and 35 μL/well of iced-cold MSD lysis buffer containing protease and phosphatase inhibitors from Phospho-STAT3 Tyr705 assay kit (Meso-Scale Discovery #K150DID) was added to each well. Plates were incubated at 4° C. with shaking for 30 minutes. Cell lysates were assayed following the MSD Phospho-STAT3 Tyr705 assay kit protocol to detect pSTAT3.
Data were collected and transformed into percent inhibition and calculated using the following formula: […]

In the next assay the target is JAK1 (Homo sapiens (Human), UniProt P23458). Description: JAK Caliper Enzyme Assay at 1 mM ATP (JAK1). In kind it is biochemical. The following applies: Caliper assay at 1 mM ATP.
The target of the next assay is TYK2 (Homo sapiens (Human), UniProt P29597). Put plainly: JAK Caliper Enzyme Assay at 1 mM ATP (TYK2). In kind it is biochemical. To be noted: Caliper assay at 1 mM ATP.
A further assay addresses JAK2 (Homo sapiens (Human), UniProt O60674). Description: JAK Caliper Enzyme Assay at 1 mM ATP (JAK2). Type of assay: biochemical. To be noted: Caliper assay at 1 mM ATP.
The next assay deals with JAK3 (Homo sapiens (Human), UniProt P52333). Put plainly: JAK Caliper Enzyme Assay at 1 mM ATP (JAK3). The following applies: Caliper assay at 1 mM ATP. In kind it is biochemical.
Sequence of JAK3 (P52333 whole entry, species assumed): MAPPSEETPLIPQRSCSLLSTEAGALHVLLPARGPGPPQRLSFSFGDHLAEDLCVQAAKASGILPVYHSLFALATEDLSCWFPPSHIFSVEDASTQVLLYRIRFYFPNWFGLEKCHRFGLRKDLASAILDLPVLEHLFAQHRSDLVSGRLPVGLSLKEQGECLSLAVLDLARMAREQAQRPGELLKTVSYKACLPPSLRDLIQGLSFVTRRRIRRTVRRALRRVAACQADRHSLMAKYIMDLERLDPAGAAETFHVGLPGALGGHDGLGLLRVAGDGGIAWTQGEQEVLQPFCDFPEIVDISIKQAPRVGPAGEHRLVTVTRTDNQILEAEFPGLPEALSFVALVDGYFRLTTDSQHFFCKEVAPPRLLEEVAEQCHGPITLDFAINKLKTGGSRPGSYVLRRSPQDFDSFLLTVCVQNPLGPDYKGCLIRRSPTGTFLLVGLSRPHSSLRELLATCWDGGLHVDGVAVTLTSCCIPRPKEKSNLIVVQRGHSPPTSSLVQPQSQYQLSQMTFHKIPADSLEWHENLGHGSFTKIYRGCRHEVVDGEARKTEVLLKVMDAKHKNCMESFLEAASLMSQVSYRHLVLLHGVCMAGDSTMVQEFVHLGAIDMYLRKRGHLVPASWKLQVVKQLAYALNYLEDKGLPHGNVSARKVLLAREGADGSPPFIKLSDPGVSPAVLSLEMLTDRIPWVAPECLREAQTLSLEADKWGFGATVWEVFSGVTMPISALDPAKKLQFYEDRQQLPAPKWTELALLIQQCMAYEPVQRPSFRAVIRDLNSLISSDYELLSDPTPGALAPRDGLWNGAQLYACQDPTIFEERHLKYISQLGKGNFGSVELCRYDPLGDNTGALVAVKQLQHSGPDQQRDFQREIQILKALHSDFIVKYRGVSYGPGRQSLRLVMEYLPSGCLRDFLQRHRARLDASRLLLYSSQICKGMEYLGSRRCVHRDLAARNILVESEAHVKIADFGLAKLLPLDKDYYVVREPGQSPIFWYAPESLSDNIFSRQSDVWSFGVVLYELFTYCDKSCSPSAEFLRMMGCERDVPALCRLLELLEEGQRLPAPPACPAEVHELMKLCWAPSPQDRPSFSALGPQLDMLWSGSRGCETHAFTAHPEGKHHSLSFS

Sequence of TYK2 (P29597 whole entry, species assumed): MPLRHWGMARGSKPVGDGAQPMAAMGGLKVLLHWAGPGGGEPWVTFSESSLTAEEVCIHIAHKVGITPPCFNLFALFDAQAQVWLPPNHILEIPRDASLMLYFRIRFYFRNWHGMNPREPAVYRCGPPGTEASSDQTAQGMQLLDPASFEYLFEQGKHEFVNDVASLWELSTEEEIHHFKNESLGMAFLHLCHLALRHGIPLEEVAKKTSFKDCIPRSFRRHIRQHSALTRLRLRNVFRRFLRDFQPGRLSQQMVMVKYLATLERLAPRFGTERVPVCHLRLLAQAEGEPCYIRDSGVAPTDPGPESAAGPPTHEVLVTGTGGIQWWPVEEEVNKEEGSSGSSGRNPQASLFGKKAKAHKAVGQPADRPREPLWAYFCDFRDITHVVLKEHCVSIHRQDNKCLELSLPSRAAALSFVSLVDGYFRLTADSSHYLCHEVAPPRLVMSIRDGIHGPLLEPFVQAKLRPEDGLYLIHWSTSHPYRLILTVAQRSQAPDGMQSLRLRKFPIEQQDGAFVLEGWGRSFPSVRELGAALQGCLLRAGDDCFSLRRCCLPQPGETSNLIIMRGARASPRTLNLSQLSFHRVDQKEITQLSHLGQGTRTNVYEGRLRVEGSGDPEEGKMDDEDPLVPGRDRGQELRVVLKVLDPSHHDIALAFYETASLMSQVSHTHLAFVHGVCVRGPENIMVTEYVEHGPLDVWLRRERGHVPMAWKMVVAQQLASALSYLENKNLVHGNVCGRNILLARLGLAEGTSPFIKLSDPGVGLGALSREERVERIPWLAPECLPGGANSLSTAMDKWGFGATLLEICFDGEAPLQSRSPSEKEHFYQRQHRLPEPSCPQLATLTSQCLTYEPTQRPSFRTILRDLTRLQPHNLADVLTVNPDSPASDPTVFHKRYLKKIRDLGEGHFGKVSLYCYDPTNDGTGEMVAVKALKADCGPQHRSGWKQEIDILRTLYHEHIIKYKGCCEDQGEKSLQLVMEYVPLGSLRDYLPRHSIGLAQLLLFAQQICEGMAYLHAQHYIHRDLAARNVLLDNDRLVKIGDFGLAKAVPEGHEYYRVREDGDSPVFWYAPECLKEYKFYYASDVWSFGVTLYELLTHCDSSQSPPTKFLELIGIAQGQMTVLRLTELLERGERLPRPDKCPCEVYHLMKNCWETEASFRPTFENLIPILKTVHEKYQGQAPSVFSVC
Sequence of JAK2 (O60674 whole entry, species assumed): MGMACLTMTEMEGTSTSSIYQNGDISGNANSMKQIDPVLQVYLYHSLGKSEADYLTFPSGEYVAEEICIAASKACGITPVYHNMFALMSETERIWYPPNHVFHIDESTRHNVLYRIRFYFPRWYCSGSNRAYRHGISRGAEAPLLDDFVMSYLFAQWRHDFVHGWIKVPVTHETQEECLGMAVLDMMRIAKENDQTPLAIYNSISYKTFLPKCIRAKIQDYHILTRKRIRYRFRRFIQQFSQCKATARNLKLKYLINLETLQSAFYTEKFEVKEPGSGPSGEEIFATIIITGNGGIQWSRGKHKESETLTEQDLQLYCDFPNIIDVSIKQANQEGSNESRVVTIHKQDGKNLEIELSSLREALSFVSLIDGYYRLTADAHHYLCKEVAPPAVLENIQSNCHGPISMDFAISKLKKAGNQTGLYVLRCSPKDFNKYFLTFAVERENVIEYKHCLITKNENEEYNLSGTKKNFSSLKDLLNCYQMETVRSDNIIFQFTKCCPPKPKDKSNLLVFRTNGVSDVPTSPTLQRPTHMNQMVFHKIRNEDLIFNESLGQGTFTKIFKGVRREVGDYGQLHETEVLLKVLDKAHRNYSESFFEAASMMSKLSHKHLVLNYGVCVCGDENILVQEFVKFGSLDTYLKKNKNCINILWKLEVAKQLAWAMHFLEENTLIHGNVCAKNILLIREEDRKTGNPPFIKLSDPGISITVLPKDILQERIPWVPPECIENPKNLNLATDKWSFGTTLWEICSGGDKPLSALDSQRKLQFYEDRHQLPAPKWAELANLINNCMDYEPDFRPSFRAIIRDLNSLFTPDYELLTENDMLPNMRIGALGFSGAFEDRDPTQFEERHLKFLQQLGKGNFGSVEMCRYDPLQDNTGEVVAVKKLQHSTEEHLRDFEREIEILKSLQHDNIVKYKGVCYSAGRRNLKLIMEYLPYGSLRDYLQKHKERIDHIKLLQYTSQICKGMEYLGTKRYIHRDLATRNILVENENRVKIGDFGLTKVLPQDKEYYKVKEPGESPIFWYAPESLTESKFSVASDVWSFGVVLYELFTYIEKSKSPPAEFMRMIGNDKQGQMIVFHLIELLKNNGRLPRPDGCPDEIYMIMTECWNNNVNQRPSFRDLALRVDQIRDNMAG
Sequence of JAK1 (P23458 whole entry, species assumed): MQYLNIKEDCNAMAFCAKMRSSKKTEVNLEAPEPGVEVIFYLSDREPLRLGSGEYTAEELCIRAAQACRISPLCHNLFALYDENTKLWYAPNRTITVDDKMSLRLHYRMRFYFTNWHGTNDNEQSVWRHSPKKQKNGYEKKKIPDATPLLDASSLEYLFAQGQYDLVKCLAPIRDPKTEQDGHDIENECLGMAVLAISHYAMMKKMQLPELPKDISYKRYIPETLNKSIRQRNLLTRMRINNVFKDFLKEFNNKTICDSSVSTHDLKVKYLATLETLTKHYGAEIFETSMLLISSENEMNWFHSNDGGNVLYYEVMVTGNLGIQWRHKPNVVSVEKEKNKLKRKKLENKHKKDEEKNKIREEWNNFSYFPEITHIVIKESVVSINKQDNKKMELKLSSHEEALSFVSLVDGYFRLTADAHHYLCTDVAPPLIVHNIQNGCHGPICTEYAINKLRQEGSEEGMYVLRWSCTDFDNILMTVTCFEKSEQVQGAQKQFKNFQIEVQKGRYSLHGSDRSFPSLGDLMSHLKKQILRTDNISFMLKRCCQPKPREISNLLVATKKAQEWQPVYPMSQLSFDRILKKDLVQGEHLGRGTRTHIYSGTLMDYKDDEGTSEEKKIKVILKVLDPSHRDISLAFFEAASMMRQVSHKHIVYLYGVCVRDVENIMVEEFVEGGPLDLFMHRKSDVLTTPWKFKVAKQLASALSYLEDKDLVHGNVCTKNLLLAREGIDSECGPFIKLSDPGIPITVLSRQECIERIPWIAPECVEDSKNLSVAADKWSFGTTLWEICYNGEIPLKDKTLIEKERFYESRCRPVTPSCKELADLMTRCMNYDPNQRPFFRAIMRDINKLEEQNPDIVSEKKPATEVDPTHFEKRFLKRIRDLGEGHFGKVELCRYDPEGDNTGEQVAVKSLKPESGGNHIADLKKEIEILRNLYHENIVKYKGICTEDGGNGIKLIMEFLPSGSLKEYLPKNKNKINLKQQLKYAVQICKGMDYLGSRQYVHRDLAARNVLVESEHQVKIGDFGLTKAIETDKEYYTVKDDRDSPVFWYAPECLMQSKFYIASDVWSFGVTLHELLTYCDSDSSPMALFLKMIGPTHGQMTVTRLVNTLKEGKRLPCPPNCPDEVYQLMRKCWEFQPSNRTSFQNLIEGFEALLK

`Cc1cnc(N(C)S(C)(=O)=O)c(CNc2nc(-c3cc(F)c(O)cc3CC(F)(F)F)cc3[nH]nc(C(N)=O)c23)c1` [Example 86, 6-(5-fluoro-4-hydroxy-2-(2,2,2-trifluoroethyl)phenyl)-4-(((5-methyl-2-(N-methylmethylsulfonam-ido)pyridin-3-yl)methyl)amino)-1H-pyrazolo[4,3-c]pyridine-3-carboxamide]: the negative logarithm of the IC50 (pIC50) – broadly, −log10 of the IC50, conventionally taken in molar units – in assay [1] was 6.37.
Same read-out and setting: next, `CCc1cc(O)c(F)cc1-c1cc2[nH]nc(C(=O)NC)c2c(NCC2CCCC2)n1` [Example 10, 4-[(cyclopentylmethyl)ami-no]-6-(2-ethyl-5-fluoro-4-hydroxyphenyl)-N-methyl-1H-pyrazolo[4,3-c]pyridine-3-carboxamide]: 7.59.
In the case of `CCN(c1ccccc1CNc1nc(-c2cc(F)c(O)cc2CC(F)(F)F)cc2[nH]nc(C(=O)NC)c12)S(C)(=O)=O` [Example 12, 4-({2-[ethyl(methylsulfon-yl)amino]benzyl}ami-no)-6-[5-fluoro-4-hydroxy-2-(2,2,2-trifluoroethyl)phenyl]-N-methyl-1H-pyrazolo[4,3-c]pyridine-3-carboxamide], the pIC50 in assay [1] is 7.35.
Take `CS(=O)(=O)N(CCO)c1ccccc1CNc1nc(-c2cc(F)c(O)cc2CC(F)(F)F)cc2[nH]nc(C(N)=O)c12` [Example 27, 6-[5-fluoro-4-hydroxy-2-(2,2,2-trifluoroethyl)phenyl]-4-({2-[(2-hydroxyethyl)(methylsul-fonyl)amino]benzyl}amino)-1H-pyrazolo[4,3-c]pyridine-3-carboxamide]: the pIC50 in assay [1] is 6.06.
Still for that read-out and setting: next, `CCc1cc(O)c(F)cc1-c1cc2[nH]nc(C(=O)NC)c2c(NCc2cc(C)ccc2N(C)S(C)(=O)=O)n1` [Example 21, 6-(2-ethyl-5-fluoro-4-hydroxyphenyl)-N-methyl-4-({5-methyl-2-[methyl(methylsulfon-yl)amino]benzyl}ami-no)-1H-pyrazolo[4,3-c]pyridine-3-carboxamide]: 7.45; `CCc1cc(O)c(F)cc1-c1cc2[nH]ncc2c(N(CCc2ccc(NS(C)(=O)=O)cc2)Cc2ccccc2N(C)S(C)(=O)=O)n1` [Example 130, N-[2-({[6-(2-ethyl-5-fluoro-4-hydroxyphenyl)-1H-pyrazolo[4,3-c]pyridin-4-yl](2-{4-[(methylsulfon-yl)amino]phenyl}ethyl)amino}methyl)phenyl]-N-methylmethanesulfonamide hydrochloride]: 6.14.
Consider `CSCCNc1nc(-c2cc(F)c(O)cc2CC(F)(F)F)cc2[nH]nc(-c3nc4c([nH]3)CCN(Cc3ccccc3)C4)c12` [Example 161, 4-[3-(5-Benzyl-4,5,6,7-tetrahydro-1H-imidazo[4,5-c]pyridin-2-yl)-4-{[2-(methylsulfanyl)-ethyl]amino}-1H-pyrazolo[4,3-c]pyridin-6-yl]-2-fluoro-5-(2,2,2-trifluoroethyl)phenol], for which the pIC50 in assay [1] (Homo sapiens) was less than 5.00.
`CN(c1ccc(O)cc1CNc1nc(-c2cc(F)c(O)cc2CC(F)(F)F)nc2[nH]nc(-c3nc4c([nH]3)CCNC4)c12)S(C)(=O)=O` [Example 169, N-{2-[({6-[5-Fluoro-4-hydroxy-2-(2,2,2-trifluoroethyl)phenyl]-3-(4,5,6,7-tetrahydro-1H-imidazo[4,5-c]pyridin-2-yl)-1H-pyrazolo[3,4-d]pyrimidin-4-yl}amino)methyl]-4-hydroxyphenyl}-N-methylmethanesulfonamide] had a negative logarithm of the IC50 (pIC50) in assay [1] (Homo sapiens) of less than 5.00.
With `CNC(=O)c1n[nH]c2cc(-c3cc(F)c(O)cc3CC(F)(F)F)nc(NCc3ccc(O)cc3N(C)S(C)(=O)=O)c12` [Example 33, 6-[5-fluoro-4-hydroxy-2-(2,2,2-trifluoroethyl)phenyl]-4-({4-hydroxy-2-[methyl(methylsulfon-yl)amino]benzyl}amino)-N-methyl-1H-pyrazolo[4,3-c]pyridine-3-carboxamide], in assay [1], the pIC50 was 6.31.
In turn, `CNC(=O)c1n[nH]c2nc(-c3cc(F)c(O)cc3CC(F)(F)F)nc(NCc3ccccc3N(CCO)S(C)(=O)=O)c12` [Example 102, 6-(5-fluoro-4-hydroxy-2-(2,2,2-trifluoroethyl)phenyl)-4-((2-(N-(2-hydroxyethyl)methylsulfonamido)benzyl)amino)-N-methyl-1H-pyrazolo[3,4-d]pyrimidine-3-carboxamide] showed a pIC50 in assay [1] (Homo sapiens) of 5.47.
In assay [1] (Homo sapiens), `CN(c1ccc(O)cc1CNc1nc(-c2cc(F)c(O)cc2CC(F)(F)F)nc2[nH]nc(C(N)=O)c12)S(C)(=O)=O` [Example 97, 6-(5-Fluoro-4-hydroxy-2-(2,2,2-trifluoroethyl)phenyl)-4-((5-hydroxy-2-(N-methylmethylsulfonamido)benzyl)amino)-1H-pyrazolo[3,4-d]pyrimidine-3-carboxamide] had a pIC50 of 5.68. Against the preceding compound, the pIC50 is 0.21 log units higher.
For `CCN(c1ncccc1CNc1nc(-c2cc(F)c(O)cc2CC(F)(F)F)cc2[nH]nc(C(N)=O)c12)S(C)(=O)=O` [Example 52, 4-[({2-[ethyl(methyl-sulfonyl)-amino]pyridin-3-yl}methyl)amino]-6-[5-fluoro-4-hydroxy-2-(2,2,2-trifluoroethyl)phenyl]-1H-pyrazolo[4,3-c]pyridine-3-carboxamide], the negative logarithm of the IC50 (pIC50) is 8.54 on JAK1, 6.96 on TYK2, 7.82 on JAK2 and 7.33 against JAK3.
Turning to `CCc1cc(O)c(F)cc1-c1cc2[nH]nc(C(=O)NC)c2c(NCc2ccccc2N(C)S(C)(=O)=O)n1` [Example 19, 6-(2-ethyl-5-fluoro-4-hydroxy-phenyl)-N-methyl-4-({2-[methyl(methyl-sulfonyl)amino]benzyl}amino)-1H-pyrazolo[4,3-c]pyridine-3-carboxamide], the negative logarithm of the IC50 (pIC50) was 9.05 against JAK1, 8.32 against TYK2, 8.23 at JAK2 and 7.51 at JAK3.
In the case of `CCc1cc(O)c(F)cc1-c1cc2[nH]ncc2c(NCc2ccccc2N(CCO)S(C)(=O)=O)n1` [Example 147, N-[2-({[6-(2-Ethyl-5-fluoro-4-hydroxyphenyl)-1H-pyrazolo[4,3-c]pyridin-4-yl]amino}methyl)phenyl]-N-(2-hydroxyethyl)methanesulfonamide], the pIC50 is 8.96 against JAK1, 7.31 at TYK2, 8.33 against JAK2 and 7.73 at JAK3.
The like results for `CNC(=O)c1n[nH]c2cc(-c3cc(F)c(O)cc3CC(F)(F)F)nc(NCc3cc(C)cnc3N(C)S(C)(=O)=O)c12` [Example 67, 6-[5-fluoro-4-hydroxy-2-(2,2,2-trifluoroethyl)phenyl]-N-methyl-4-[({5-methyl-2-[methyl(methylsulfonyl)amino]pyridin-3-yl}methyl)amino]-1H-pyrazolo[4,3-c]pyridine-3-carboxamide] were, in that order, 7.79, 5.69, 7.32 and 7.14.
The like results for `Cc1ccc(NC(=O)c2n[nH]c3cc(-c4cc(F)c(O)cc4CC(F)(F)F)nc(NCc4ccccc4N(C)S(C)(=O)=O)c23)cn1` [Example 76, 6-[5-Fluoro-4-hydroxy-2-(2,2,2-trifluoroethyl)phenyl]-4-({2-[methyl(methylsulfonyl)amino]-benzyl}amino)-N-(6-methylpyridin-3-yl)-1H-pyrazolo[4,3-c]pyridine-3-carboxamide] were, in that order, 7.53, 6.50, 6.95 and 6.32.
